Test results reported in patent US5622989A, “Amino-benzofuryl-and thienyl-derivatives” (Bayer Aktiengesellschaft, priority 1994, dated 1997).

Tested on: human PMN
Assay: Inhibition of FMLP-stimulated production of superoxide radical anions
Format: cell-based
Details: Neutrophil, neutrophils stimulated with 4×10^-8 M FMLP; for inhibition at 10 µM: 10 μM compound
Protocol: 1. Preparation of human PMN
Blood was taken from healthy subjects by venous puncture and neutrophils were purified by dextran sedimentation and resuspended in the buffered medium.
2. Inhibition of FMLP-stimulated production of superoxide racidal anions.
Neutrophils (2.5×10^5 ml^-1) were mixed with cytochrome C (1.2 mg/ml) in the wells of a microtitre plate. Compounds according to the invention were added in dimethyl sulphoxide (DMSO). Compound concentration ranged from 2.5 nM to 10 μM, the DMSO concentration was 0.1% v/v in all wells. After addition of cytochalasin b (5 μg×ml^-1) the plate was incubated for 5 min at 37° C. Neutrophils were then stimulated by addition of 4×10^-8 M FMLP and superoxide generation measured as superoxide dismutase inhibitable reduction of cytochrome C by monitoring the OD550 in a Thermomax microtitre plate spectrophotometer. Initial rates were calculated using a Softmax kinetic calculation programme. Blank wells contained 200 units of superoxide dismutase.
The inhibition of superoxide production was calculated as follows: [formula] Rx=Rate of the well containing the compound according to the invention. Ro=Rate in the control well.
Rb=Rate in the superoxide dismutase containing blank well.

Row | Structure (SMILES) | inhibition at 10 µM [%] | IC50 [nM]
1 | CSc1ccc(C(=O)c2oc3cc(NC(C)=O)ccc3c2CCC(=O)O)cc1 [Example 21] | 90 | 420
2 | COc1cccc(C(=O)c2oc3cc(NC(C)=O)ccc3c2CCC(=O)O)c1 [Example 24] | 68 | 600
